The source of these data is ChEMBL document CHEMBL4376824, “Anti-Lymphangiogenic Alkaloids from the Zoanthid Zoanthus vietnamensis Collected in Taiwan” (J Nat Prod, 2019).

Active and inactive are the calls of the source. The rule behind the calls is not given here.

The nature of data set [1]: Anti-lymphangiogenic activity in HDLEC assessed as cell growth at 50 ug/ml incubated for 48 hrs by SRB staining based assay relative to control. It is filed as functional. Conditions: Homo sapiens, read-out: Activity.
Data set [2] is filed under the species Homo sapiens. As to the kind of experiment: Anti-lymphangiogenic activity in HDLEC assessed as reduction in tube formation at 50 ug/ml incubated for 8 hrs by matrigel tube formation based inverted phase contrast microscopic analysis. It is filed as functional.
A short description of data set [3]: Anti-lymphangiogenic activity in HDLEC assessed as reduction in tube formation incubated for 8 hrs by matrigel tube formation based inverted phase contrast microscopic analysis. It is filed as functional, Homo sapiens.
Data set [4] in a line: Cytotoxicity against HDLEC at 50 ug/ml incubated for 24 hrs by LDH assay. Conditions: human.
A short description of data set [5]: Anti-lymphangiogenic activity in HDLEC assessed as cell growth at 10 ug/ml incubated for 48 hrs by SRB staining based assay relative to control. It is filed as functional. Particulars: Homo sapiens, read-out: Activity.

Consider `CC1=CC(=O)[C@@H]2[C@@H](C1)[C@]13CO[C@@]4([C@@H]1O)N1C[C@@H]5O[C@@]1(CC[C@@]4(C)[C@]1(COC(=O)C1)[C@H]3C(=O)[C@@H]2C)C[C@@H](C)[C@H]5O`, for which the growth at 50 µg/mL in data set [1] is 98%. With `C[C@H]1C[C@@H]2CN3C4=C[C@@]56CO[C@]7(C)CC(=O)[C@@H]([C@H]5C7)[C@@H](C)C(=O)[C@H]6[C@@]5(COC(=O)C5)[C@]4(C)CC[C@@]3(C1)O2`, the growth at 50 µg/mL in data set [1] is 82%. Consider `C[C@H]1C[C@@H]2CN3C4=C[C@@]56CO[C@@](O)([C@H](C)[C@@H]7C(=O)C=C(CO)C[C@H]75)[C@@H]6[C@@]5(COC(=O)C5)[C@]4(C)CC[C@@]3(C1)O2`, for which the inhibition entry in data set [2] was “Active”. Also, in data set [1], the growth at 50 µg/mL turned out to be 60%. Moreover, the IC50 in data set [3] came to 99 µM. Besides, in data set [4], the Activity result is given as “Non-Toxic”. Consider `CC1=CC(=O)[C@@H]2[C@@H](C1)[C@]13CO[C@@]4([C@@H]1O)N1C[C@H]5C[C@H](C)C[C@]1(CC[C@@]4(C)[C@]1(COC(=O)C1)[C@H]3C(=O)[C@@H]2C)O5`, for which, in data set [1], the growth at 50 µg/mL was 81%.

On to `C[C@H]1C[C@@H]2CN3C4=C[C@@]5(C)[C@@H]6CC(CO)=CC(=O)[C@H]6[C@@H](C)C(=O)[C@@H]5[C@@]5(COC(=O)C5)[C@]4(C)CC[C@@]3(C1)O2`, for which the inhibition entry in data set [2] was “Active”. Besides, the growth at 50 µg/mL in data set [1] turned out to be 56%. Also, the IC50 in data set [3] amounted to 98 µM. In addition, the Activity entry in data set [4] was “Non-Toxic”.

For the compound `C[C@H]1C[C@@H]2CN3C4=C[C@@]56CO[C@]7(C)CC(=O)[C@@H]([C@H]5C7)[C@@H](C)C(=O)[C@@H]6[C@@]5(COC(=O)C5)[C@]4(C)CC[C@@]3(C1)O2`, in data set [1], the growth at 50 µg/mL came out at 85%. Consider `CC1=CC(=O)[C@@H]2[C@@H](C1)[C@]1(C)C=C3N4C[C@H]5C[C@H](C)C[C@]4(CC[C@@]3(C)[C@]3(COC(=O)C3)[C@H]1C(=O)[C@@H]2C)O5`, for which, in data set [1], the growth at 50 µg/mL is 91%. On the same count and under the same terms, the result for `CC1=CC(=O)[C@@H]2[C@@H](C1)[C@]13C=C4N5C[C@@H]6O[C@@]5(CC[C@@]4(C)[C@]4(COC(=O)C4)[C@H]1[C@@](O)(OC3)[C@@H]2C)C[C@@H](C)[C@H]6O` reads 101%; that for `COC(=O)CNCC1=CC(=O)[C@@H]2[C@@H](C1)[C@]13CO[C@@]4([C@@H]1O)N1C[C@H]5C[C@H](C)C[C@]1(CC[C@@]4(C)[C@]1(COC(=O)C1)[C@H]3C(=O)[C@@H]2C)O5`, 76%. On to `COC(=O)CNCC1=CC(=O)[C@@H]2[C@@H](C1)[C@]13C=C4N5C[C@H]6C[C@H](C)C[C@]5(CC[C@@]4(C)[C@]4(COC(=O)C4)[C@H]1[C@@](O)(OC3)[C@@H]2C)O6`, for which the inhibition entry in data set [2] is “Active”. In data set [1], the growth at 50 µg/mL was 38%. Moreover, the IC50 in data set [3] worked out at 68 µM. Also, the Activity entry in data set [4] was “Non-Toxic”.

With `CC1=CC(=O)[C@@H]2[C@@H](C1)[C@]13CO[C@@]4([C@@H]1O)N1C[C@H]5C[C@H](C)C[C@@]1(O5)[C@@H](O)C[C@@]4(C)[C@]1(COC(=O)C1)[C@H]3C(=O)[C@@H]2C`, in data set [1], the growth at 50 µg/mL is 100%.

As to `CC1=CC(=O)[C@@H]2[C@@H](C1)[C@]13C=C4N5C[C@H]6C[C@H](C)C[C@@]5(O6)[C@@H](O)C[C@@]4(C)[C@]4(COC(=O)C4)[C@H]1[C@@](O)(OC3)[C@@H]2C`, the growth at 50 µg/mL in data set [1] was 83%. For `CO[C@H]1C[C@@H]2CC[C@@H](C)[C@@](O)(O2)C(=O)C(=O)N2CCCC[C@H]2C(=O)O[C@H]([C@H](C)C[C@@H]2CC[C@@H](O)[C@H](OC)C2)CC(=O)[C@H](C)/C=C(\C)[C@@H](O)[C@@H](OC)C(=O)[C@H](C)C[C@H](C)/C=C/C=C/C=C/1C` [SIROLIMUS], the growth at 10 µg/mL in data set [5] was determined as 17%. Also, the IC50 in data set [3] was found to be 57 µM. As to `CC1=CC(=O)[C@@H]2[C@@H](C1)[C@]1(C)C=C3N4C[C@@H]5O[C@@]4(CC[C@@]3(C)[C@]3(COC(=O)C3)[C@H]1C(=O)[C@@H]2C)C[C@@H](C)[C@H]5O`, the growth at 50 µg/mL in data set [1] turned out to be 85%. Regarding `C[C@H]1C[C@@H]2CN3[C@](CC[C@@]4(C)[C@]5(COC(=O)C5)[C@H]5C(=O)[C@H](C)[C@@H]6C(=O)C=C(CO)C[C@H]6[C@@]56CO[C@@]34[C@@H]6O)(C1)O2`, the growth at 50 µg/mL in data set [1] was 66%. Same read-out and setting: the result for `CC1=CC(=O)[C@@H]2[C@@H]([C@@H]1O)[C@]1(C)C=C3N4C[C@H]5C[C@H](C)C[C@]4(CC[C@@]3(C)[C@]3(COC(=O)C3)[C@H]1C(=O)[C@@H]2C)O5` reads 75%. Regarding `CC1=CC(=O)[C@@H]2[C@@H](C1)[C@]13C=C4N5C[C@H]6C[C@H](C)C[C@]5(CC[C@@]4(C)[C@]4(COC(=O)C4)[C@H]1[C@@](O)(OC3)[C@@H]2C)O6`, in data set [1], the growth at 50 µg/mL worked out at 88%. Still for that read-out and setting: the result for `C[C@H]1C[C@@H]2CN3[C@H]4C(=O)[C@@]56CO[C@]7(C)CC(=O)[C@@H]([C@H]5C7)[C@@H](C)C(=O)[C@@H]6[C@@]5(COC(=O)C5)[C@]4(C)CC[C@@]3(C1)O2` reads 86%.
